Measured values as given in patent US6896895B2, “Carotenoid esters, carotenoid-enriched feeds, and methods of pigmenting foods and foodstuffs” (DSM IP Assets B.V., priority 2000, dated 2005).

Experiments:
[1] = Carotenoid ester content in plasma, back skin and abdominal fat of broilers (HPLC); assay type: in vivo, broiler chickens (Ross 308, Ross 508); details: for concentrations determined as equivalents of the ethyl β-apo-8′-carotenoate, in the skin: in comparison to the other 12 tested carotenoid esters
Procedure, shortened: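 Ross 308/508 broilers, raised on low-carotenoid basal diet (<2 mg xanthophylls/kg) to day 15 or 22, then fed pigment-supplemented diet for three weeks; plasma sampled day 42, back skin and abdominal fat pooled per group at slaughter on day 44. Carotenoid esters quantified by normal-phase HPLC (0.5% acetone in n-hexane) calibrated with all-E ethyl β-apo-8′-carotenoate; Z-isomers corrected by factor 1.4.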

[2] = system: skin and shanks of broilers; test: Reflectance colorimetry and visual classification of skin and shanks of broilers; assay type: in vivo, broiler chickens (Ross 308, Ross 508); design: key to Shanks Visual Classification / Skin Visual Classification: −; (+); +; ++ = good color; o = orange; details: for Shanks Chroma C*ab % of Controls / Shanks Color Hue h*ab % of Controls / Skin Chroma C*ab % of Controls / Skin Color Hue h*ab % of Controls / Shanks Chroma C*ab Value / Shanks Color Hue h*ab Value / Shanks Visual Classification / Skin Chroma C*ab Value / Skin Color Hue h*ab Value / Skin Visual Classification: dry carcasses; for chroma C*a*b* values in the skin and in the shanks / color hue h*a*b* in the skin and in the shanks / effectiveness in terms of concentration in the skin, and color intensity (chroma C*a*b*) in the skin and shanks: versus the control
Procedure, shortened: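 Ross broilers were fed a low-carotenoid basal diet (<2 mg xanthophylls/kg), then received pigment-supplemented diet for three weeks and were slaughtered on day 44. Back-skin colour (mean of three points) and shank colour (single reading) were measured by Minolta chromameter (D65, 0°) and reported as CIE L*a*b*, h* and C*, averaged over ten birds (5 male, 5 female).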

[3] = average over doses, in relation to the controls (CAROPHYLL Yellow) of the same trial, Table 3
[4] = trial MC-24/99, 20 mg/kg feed, in relation to the controls of the same trial
[5] = trial MC-24/99, 30 mg/kg feed, in relation to the controls of the same trial

## CC(C=CC=C(C)C=CC1=C(C)CCCC1(C)C)=CC=CC=C(C)C=CC=C(C)C(=O)OC(C)(C)C [compound (18), tert. butyl beta-apo-8′-carotenoate]
[1]; [3]
  Analytical Content as Equivalent of Ethyl β-apo-8′-carotenoate Fat %: 113%
  Analytical Content as Equivalent of Ethyl β-apo-8′-carotenoate Plasma %: 103%
  Analytical Content as Equivalent of Ethyl β-apo-8′-carotenoate Skin %: 198%
[1]; average over doses, in relation to the controls (CAROPHYLL Yellow) of the same trial, Table 3, listed as tert. Butyl β-apo-8′-carotenoate
  Analytical Content as Equivalent of Ethyl β-apo-8′-carotenoate Skin %: 189%
[1]
  concentrations determined as equivalents of the ethyl β-apo-8′-carotenoate, in the skin: substantially higher
[1]; trial MC-24/99, 20 mg/kg feed
  Analytical Content as Equivalent of Ethyl β-apo-8′-carotenoate Fat: 3.7 mg/kg
  Analytical Content as Equivalent of Ethyl β-apo-8′-carotenoate Plasma: 12.2 mg/kg
  Analytical Content as Equivalent of Ethyl β-apo-8′-carotenoate Skin: 5.4 mg/kg
[1]; [4]
  Analytical Content as Equivalent of Ethyl β-apo-8′-carotenoate Fat %: 119%
  Analytical Content as Equivalent of Ethyl β-apo-8′-carotenoate Plasma %: 117%
  Analytical Content as Equivalent of Ethyl β-apo-8′-carotenoate Skin %: 194%
[1]; trial MC-24/99, 30 mg/kg feed
  Analytical Content as Equivalent of Ethyl β-apo-8′-carotenoate Fat: 4.6 mg/kg
  Analytical Content as Equivalent of Ethyl β-apo-8′-carotenoate Plasma: 14.1 mg/kg
  Analytical Content as Equivalent of Ethyl β-apo-8′-carotenoate Skin: 6.4 mg/kg
[1]; [5]
  Analytical Content as Equivalent of Ethyl β-apo-8′-carotenoate Fat %: 107%
  Analytical Content as Equivalent of Ethyl β-apo-8′-carotenoate Plasma %: 88%
  Analytical Content as Equivalent of Ethyl β-apo-8′-carotenoate Skin %: 184%
[2]; average over doses, Table 5
  Shanks Chroma C*ab % of Controls: 113%
  Shanks Color Hue h*ab % of Controls: 100%
  Skin Chroma C*ab % of Controls: 115%
  Skin Color Hue h*ab % of Controls: 105%
[2]; trial MC-24/99, 20 mg/kg feed
  Shanks Chroma C*ab % of Controls: 114%
  Shanks Chroma C*ab Value: 63
  Shanks Color Hue h*ab % of Controls: 100%
  Shanks Color Hue h*ab Value: 84
  Shanks Visual Classification: +
  Skin Chroma C*ab % of Controls: 116%
  Skin Chroma C*ab Value: 38
  Skin Color Hue h*ab % of Controls: 107%
  Skin Color Hue h*ab Value: 81
  Skin Visual Classification: +
[2]; trial MC-24/99, 30 mg/kg feed
  Shanks Chroma C*ab % of Controls: 111%
  Shanks Chroma C*ab Value: 70
  Shanks Color Hue h*ab % of Controls: 99%
  Shanks Color Hue h*ab Value: 82
  Shanks Visual Classification: ++
  Skin Chroma C*ab % of Controls: 113%
  Skin Chroma C*ab Value: 41
  Skin Color Hue h*ab % of Controls: 102%
  Skin Color Hue h*ab Value: 80
  Skin Visual Classification: ++
[2]
  chroma C*a*b* values in the skin and in the shanks: substantially enhanced
  color hue h*a*b* in the skin and in the shanks: not significantly changed
  effectiveness in terms of concentration in the skin, and color intensity (chroma C*a*b*) in the skin and shanks: significantly more effective

## CCCC(C)OC(=O)C(C)=CC=CC(C)=CC=CC=C(C)C=CC=C(C)C=CC1=C(C)CCCC1(C)C (stereo not drawn) [compound (19), 2-pentyl beta-apo-8′-carotenoate]
[1]; [3]
  Analytical Content as Equivalent of Ethyl β-apo-8′-carotenoate Fat %: 85%
  Analytical Content as Equivalent of Ethyl β-apo-8′-carotenoate Plasma %: 88%
  Analytical Content as Equivalent of Ethyl β-apo-8′-carotenoate Skin %: 134%
[1]
  concentrations determined as equivalents of the ethyl β-apo-8′-carotenoate, in the skin: substantially higher
[1]; trial MC-24/99, 20 mg/kg feed
  Analytical Content as Equivalent of Ethyl β-apo-8′-carotenoate Fat: 2.6 mg/kg
  Analytical Content as Equivalent of Ethyl β-apo-8′-carotenoate Plasma: 9.6 mg/kg
  Analytical Content as Equivalent of Ethyl β-apo-8′-carotenoate Skin: 3.6 mg/kg
[1]; [4]
  Analytical Content as Equivalent of Ethyl β-apo-8′-carotenoate Fat %: 83%
  Analytical Content as Equivalent of Ethyl β-apo-8′-carotenoate Plasma %: 93%
  Analytical Content as Equivalent of Ethyl β-apo-8′-carotenoate Skin %: 128%
[1]; trial MC-24/99, 30 mg/kg feed
  Analytical Content as Equivalent of Ethyl β-apo-8′-carotenoate Fat: 3.8 mg/kg
  Analytical Content as Equivalent of Ethyl β-apo-8′-carotenoate Plasma: 13.3 mg/kg
  Analytical Content as Equivalent of Ethyl β-apo-8′-carotenoate Skin: 4.8 mg/kg
[1]; [5]
  Analytical Content as Equivalent of Ethyl β-apo-8′-carotenoate Fat %: 87%
  Analytical Content as Equivalent of Ethyl β-apo-8′-carotenoate Plasma %: 82%
  Analytical Content as Equivalent of Ethyl β-apo-8′-carotenoate Skin %: 139%
[2]; average over doses, Table 5
  Shanks Chroma C*ab % of Controls: 105%
  Shanks Color Hue h*ab % of Controls: 98%
  Skin Chroma C*ab % of Controls: 106%
  Skin Color Hue h*ab % of Controls: 97%
[2]; trial MC-24/99, 20 mg/kg feed
  Shanks Chroma C*ab % of Controls: 108%
  Shanks Chroma C*ab Value: 60
  Shanks Color Hue h*ab % of Controls: 98%
  Shanks Color Hue h*ab Value: 82
  Shanks Visual Classification: +
  Skin Chroma C*ab % of Controls: 106%
  Skin Chroma C*ab Value: 34
  Skin Color Hue h*ab % of Controls: 96%
  Skin Color Hue h*ab Value: 73
  Skin Visual Classification: +
[2]; trial MC-24/99, 30 mg/kg feed
  Shanks Chroma C*ab % of Controls: 102%
  Shanks Chroma C*ab Value: 65
  Shanks Color Hue h*ab % of Controls: 98%
  Shanks Color Hue h*ab Value: 82
  Shanks Visual Classification: ++
  Skin Chroma C*ab % of Controls: 105%
  Skin Chroma C*ab Value: 38
  Skin Color Hue h*ab % of Controls: 97%
  Skin Color Hue h*ab Value: 76
[2]
  chroma C*a*b* values in the skin and in the shanks: substantially enhanced
  color hue h*a*b* in the skin and in the shanks: not significantly changed
  effectiveness in terms of concentration in the skin, and color intensity (chroma C*a*b*) in the skin and shanks: significantly more effective
